# PubChem BioAssay AID488890 (Southern Research Specialized Biocontainment Screening …, 2010)
# Inconclusive results are not listed. Activity calls are given as the source filed them. No rule for the calls is given here.
# System: Mycobacterium tuberculosis non-replicating, growth inhibition
# Assay: growth inhibition of non-replicating M. tuberculosis (AID 488890)
row,SMILES,IC50
1,O=C(NNc1nc2ccccc2s1)Nc1ccc(F)cc1,14.4 µM (inactive)
2,O=[N+]([O-])c1ccc(CNc2cccc(Cl)c2)s1,43.7 µM (inactive)
3,COc1ccc(/C(C)=N/Nc2ncc(Cl)cc2Cl)c(O)c1,4.51 µM
4,COc1ccccc1/C=C/C=N/NC(=O)c1ccncc1,1.08 µM
5,O=C(N/N=C/C=C/c1ccccc1)c1cccs1,45.2 µM (inactive)
6,CCOC(=O)c1c(NC(=O)C2COc3ccccc3O2)sc2c1CC(C)(C)NC2(C)C (stereo not drawn),18.3 µM (inactive)
7,CCOC(=O)CCSc1n[nH]c(=S)s1,11.7 µM (inactive)
8,O=C(COC(=O)c1cccs1)NCCC1=CCCCC1,14.1 µM (inactive)
9,Cc1cccnc1NC(=O)c1c(O)c2ccccc2n(C)c1=O,32 µM (inactive)
10,S=c1c2c(nc3nc[nH]n13)CCC2,4.68 µM
11,Cc1cccc(NCc2nnc(-c3ccccc3)o2)c1C,4.9 µM
12,O=[N+]([O-])c1ccc(S(=O)(=O)c2cccc(C(F)(F)F)c2)nc1,< 0.1 µM
13,CC1(C)CC(=O)C(C2NCCc3ccccc32)=C(O)C1 (stereo not drawn),30.8 µM (inactive)
14,CCOC(=O)C1CCN(Cc2ccc(-c3ccccc3)cc2)CC1,44 µM (inactive)
15,Cn1c(=O)c2c(=O)cc(NNC(=O)CC#N)[nH]c2n(C)c1=O,26.9 µM (inactive)
16,CCOC(=O)c1ccc(NC2=CC(=O)C(=O)c3ccccc32)cc1,9.94 µM
17,CCCCSc1nnc(-c2cc(Br)ccc2N)c(=O)[nH]1,12.6 µM (inactive)
18,COc1cccc2cc(-c3nc4ccccc4[nH]3)c(=O)oc12,< 0.2 µM
19,N=C1S/C(=C\c2ccco2)C(=O)N1c1nccs1,3.04 µM
20,CCCCNC(=O)COC(=O)c1cc(F)c(F)cc1Cl,5.61 µM

row,SMILES,IC50
1,COC(=O)c1cccc(NC(=O)COc2cccc([N+](=O)[O-])c2)c1,7.11 µM
2,CCN(CC)c1ccc(-c2sc(Nc3ccccc3)n[n+]2-c2ccc(F)cc2)cc1,9.04 µM
3,Cc1ccc(-c2nnc(-c3ccccc3)o2)cc1,1.71 µM
4,COc1cccc(-c2cc3nc4c(c(NCC(C)(C)CN(C)C)n3n2)CCCC4)c1,26.2 µM (inactive)
5,CN(CC(=O)Nc1ccc(Cl)cc1)C1CCCCC1,< 0.1 µM
6,S=C1SCN(Cc2ccco2)CN1Cc1ccco1,14.1 µM (inactive)
7,Cc1cc(OCCCn2ccnc2)ccc1C(C)C,9.17 µM
8,CC1(c2nnc(-c3ccccc3)o2)CC(c2ccc(Cl)cc2)=NO1 (stereo not drawn),1.52 µM
9,O=C(Nc1ccc(Cl)cc1Cl)c1cccc(N2C(=O)C=CC2=O)c1,11.6 µM (inactive)
10,CCOC(=O)COc1ccc2c(c1)C(=O)CC1(CCCCC1)O2,0.6 µM
11,CSc1ccc(NC(=O)Nc2cccn(Cc3ccccc3)c2=O)cc1,19.4 µM (inactive)
12,CCc1ccc(N2C(=O)CC(N3CCC(C(=O)OC)CC3)C2=O)cc1 (stereo not drawn),34.6 µM (inactive)
13,Cc1cc(NC(=O)COc2ccccc2)ccc1Cl,5.43 µM
14,O=C(CC1CC2CCC1C2)NCc1cccs1 (stereo not drawn),1.69 µM
15,CSCCC(=O)N1CCCC(N2CCN(c3cccc(C(F)(F)F)c3)CC2)C1 (stereo not drawn),34.4 µM (inactive)
16,Cc1cc(C)nc(-n2nc(C)cc2Nc2ccccc2)n1,5.25 µM
17,Cc1ccc(C(=O)NCCOc2cccc(C)c2)cc1,3.92 µM
18,Cc1ccc2nc(NC(=O)COC(=O)c3ccc(Br)o3)sc2c1,35.8 µM (inactive)
19,CC(C)=CCN1CCN(Cc2cn(C(C)C)c3ccccc23)CC1CCO (stereo not drawn),22.1 µM (inactive)
20,Cc1ccc(/C(O)=C/c2nc3ccccc3oc2=O)cc1,4.77 µM

row,SMILES,IC50
1,O=C(OCn1nnc2ccccc2c1=O)c1cccs1,12.4 µM (inactive)
2,CC(/C=C/c1ccco1)=N\NC(=O)c1cccc(Cl)c1,4.86 µM
3,CC(CN1CCOCC1)OC(=O)c1ccc(Br)cc1 (stereo not drawn),1.51 µM
4,O=C(COc1ccc(-c2ccccc2)cc1)Nc1cccnc1,3.28 µM
5,Cc1ccc(N2C(=O)CC(Sc3nccc(C)n3)C2=O)cc1 (stereo not drawn),29.6 µM (inactive)
6,NC(N)=N/N=C/c1cn(-c2ccccc2)nc1-c1cccs1,6.07 µM
7,CC(=O)c1cccc(NC(=O)C2COc3ccccc3O2)c1 (stereo not drawn),24 µM (inactive)
8,COc1ccc2cc(C(=O)C3CCCN(Cc4cccc(C)n4)C3)ccc2c1 (stereo not drawn),8.11 µM
9,CCOc1ccc(C(=O)Nc2nc3ccccc3[nH]2)cc1OCC,9.11 µM
10,O=C(N/N=C/c1ccc([N+](=O)[O-])o1)c1sc2ccccc2c1Cl,2.9 µM
11,O=C(Nc1ccc(Cl)c(Cl)c1)O/N=C/c1ccncc1,15.5 µM (inactive)
12,O=c1cc(C(F)(F)F)[nH]c2c(C(F)(F)F)cccc12,5.78 µM
13,Cc1nc2c(=O)n(C)c(=O)n(C)c2nc1Cl,10.3 µM (inactive)
14,CN(C)CCOc1nc(-c2ccccc2)nc2c1oc1ccccc12,14.3 µM (inactive)
15,O=C(N/N=C/c1cc([N+](=O)[O-])ccc1O)C1CCCCC1,1.97 µM
16,CCCCCn1c(=O)c(C(=O)Nc2nc3ccccc3[nH]2)c(O)c2ccccc21,1.9 µM
17,O=C(Nc1nc2c(F)cc(F)cc2s1)c1ccccn1,2.12 µM
18,Cc1nonc1C(=O)N/N=C/c1ccc([N+](=O)[O-])o1,10.1 µM (inactive)
